According to ChEMBL document CHEMBL1201861, “Genomics of Drug Sensitity in Cancer screening data, Wellcome Trust Sanger Institute”:

Test system: Lu-65;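 further: growth inhibition of Lu-65 cancer cells, read out by a cell viability assay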
Assay: cells
Type: functional, cell-based, Homo sapiens
Conditions: Homo sapiens, Lu-65
Description: SANGER: Inhibition of human LU-65 cell growth in a cell viability assay.

Compound | IC50
COc1cc2ncn(-c3cc(OCc4ccccc4S(C)(=O)=O)c(C#N)s3)c2cc1OC [GSK-319347A] | > 5 µM

Test system: SBC-1;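 further: cell viability assay measuring growth inhibition of the SBC-1 cell line, IC50 being the concentration that halves growth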
Assay: cells
Type: functional, cell-based, Homo sapiens
Conditions: Homo sapiens, SBC-1
Description: SANGER: Inhibition of human SBC-1 cell growth in a cell viability assay.

Compound | IC50
COc1cc2ncn(-c3cc(OCc4ccccc4S(C)(=O)=O)c(C#N)s3)c2cc1OC [GSK-319347A] | > 5 µM

Test system: KY821;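 further: growth inhibition of human KY821 cells, read out by a cell viability assay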
Assay: cells
Type: functional, cell-based, Homo sapiens
Conditions: Homo sapiens, KY821
Description: SANGER: Inhibition of human KY821 cell growth in a cell viability assay.

Compound | IC50
COc1cc2ncn(-c3cc(OCc4ccccc4S(C)(=O)=O)c(C#N)s3)c2cc1OC [GSK-319347A] | > 5 µM

Test system: KU812 cell line;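 further: growth inhibition of KU812 cells, read out with a cell viability assay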
Assay: cells
Type: functional, cell-based, Homo sapiens
Conditions: Homo sapiens, KU812
Description: SANGER: Inhibition of human KU812 cell growth in a cell viability assay.

Compound | IC50
COc1cc2ncn(-c3cc(OCc4ccccc4S(C)(=O)=O)c(C#N)s3)c2cc1OC [GSK-319347A] | > 5 µM

Test system: HOP-62
Assay: cells
Type: functional, cell-based, Homo sapiens
Conditions: Homo sapiens, HOP-62
Description: SANGER: Inhibition of human HOP-62 cell growth in a cell viability assay.

Compound | IC50
COc1cc2ncn(-c3cc(OCc4ccccc4S(C)(=O)=O)c(C#N)s3)c2cc1OC [GSK-319347A] | > 5 µM

Test system: OCI-AML2;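 further: growth inhibition of OCI-AML2 cells, read out with a cell viability assay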
Assay: cells
Type: functional, cell-based, Homo sapiens
Conditions: Homo sapiens, OCI-AML2
Description: SANGER: Inhibition of human OCI-AML2 cell growth in a cell viability assay.

Compound | IC50
COc1cc2ncn(-c3cc(OCc4ccccc4S(C)(=O)=O)c(C#N)s3)c2cc1OC [GSK-319347A] | > 5 µM

Test system: U-698-M
Assay: cells
Type: functional, cell-based, Homo sapiens
Conditions: Homo sapiens, U-698-M
Description: SANGER: Inhibition of human U-698-M cell growth in a cell viability assay.

Compound | IC50
COc1cc2ncn(-c3cc(OCc4ccccc4S(C)(=O)=O)c(C#N)s3)c2cc1OC [GSK-319347A] | > 5 µM

Test system: TE-441-T
Assay: cells
Type: functional, cell-based, Homo sapiens
Conditions: Homo sapiens, TE-441-T
Description: SANGER: Inhibition of human TE-441-T cell growth in a cell viability assay.

Compound | IC50
COc1cc2ncn(-c3cc(OCc4ccccc4S(C)(=O)=O)c(C#N)s3)c2cc1OC [GSK-319347A] | > 5 µM

Test system: GI-ME-N;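 further: growth inhibition of human GI-ME-N cells, read out with a cell viability assay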
Assay: cells
Type: functional, cell-based, Homo sapiens
Conditions: Homo sapiens, GI-ME-N
Description: SANGER: Inhibition of human GI-ME-N cell growth in a cell viability assay.

Compound | IC50
COc1cc2ncn(-c3cc(OCc4ccccc4S(C)(=O)=O)c(C#N)s3)c2cc1OC [GSK-319347A] | > 5 µM

Test system: NCI-H1581;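 further: cell growth inhibition read out by a viability assay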
Assay: cells
Type: functional, cell-based, Homo sapiens
Conditions: Homo sapiens, NCI-H1581
Description: SANGER: Inhibition of human NCI-H1581 cell growth in a cell viability assay.

Compound | IC50
COc1cc2ncn(-c3cc(OCc4ccccc4S(C)(=O)=O)c(C#N)s3)c2cc1OC [GSK-319347A] | > 5 µM

Test system: CTB-1
Assay: cells
Type: functional, cell-based, Homo sapiens
Conditions: Homo sapiens, CTB-1
Description: SANGER: Inhibition of human CTB-1 cell growth in a cell viability assay.

Compound | IC50
COc1cc2ncn(-c3cc(OCc4ccccc4S(C)(=O)=O)c(C#N)s3)c2cc1OC [GSK-319347A] | > 5 µM

Test system: NB13;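 further: cell viability readout measuring growth inhibition of human NB13 cells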
Assay: cells
Type: functional, cell-based, Homo sapiens
Conditions: Homo sapiens, NB13
Description: SANGER: Inhibition of human NB13 cell growth in a cell viability assay.

Compound | IC50
COc1cc2ncn(-c3cc(OCc4ccccc4S(C)(=O)=O)c(C#N)s3)c2cc1OC [GSK-319347A] | > 5 µM

Test system: MZ2-MEL;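 further: growth inhibition of MZ2-MEL cells read out with a cell viability assay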
Assay: cells
Type: functional, cell-based, Homo sapiens
Conditions: Homo sapiens, MZ2-MEL
Description: SANGER: Inhibition of human MZ2-MEL cell growth in a cell viability assay.

Compound | IC50
COc1cc2ncn(-c3cc(OCc4ccccc4S(C)(=O)=O)c(C#N)s3)c2cc1OC [GSK-319347A] | > 5 µM

Test system: D-336MG
Assay: cells
Type: functional, cell-based, Homo sapiens
Conditions: Homo sapiens, D-336MG
Description: SANGER: Inhibition of human D-336MG cell growth in a cell viability assay.

Compound | IC50
COc1cc2ncn(-c3cc(OCc4ccccc4S(C)(=O)=O)c(C#N)s3)c2cc1OC [GSK-319347A] | > 5 µM

Test system: RPMI 8402
Assay: SANGER: Inhibition of human RPMI-8402 cell growth in a cell viability assay.
Type: functional, cell-based
Conditions: Homo sapiens, RPMI 8402; read-out: IC50

Compound | IC50
COc1cc2ncn(-c3cc(OCc4ccccc4S(C)(=O)=O)c(C#N)s3)c2cc1OC [GSK-319347A] | > 5 µM

Test system: BC-3;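 further: cell viability assay measuring growth inhibition of human BC-3 cells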
Assay: cells
Type: functional, cell-based, Homo sapiens
Conditions: Homo sapiens, BC-3
Description: SANGER: Inhibition of human BC-3 cell growth in a cell viability assay.

Compound | IC50
COc1cc2ncn(-c3cc(OCc4ccccc4S(C)(=O)=O)c(C#N)s3)c2cc1OC [GSK-319347A] | > 5 µM

Test system: D-392MG
Assay: cells
Type: functional, cell-based, Homo sapiens
Conditions: Homo sapiens, D-392MG

Compound | IC50
COc1cc2ncn(-c3cc(OCc4ccccc4S(C)(=O)=O)c(C#N)s3)c2cc1OC [GSK-319347A] | > 5 µM

Test system: KARPAS-299
Assay: cells
Type: functional, cell-based, Homo sapiens
Conditions: Homo sapiens, KARPAS-299
Description: SANGER: Inhibition of human KARPAS-299 cell growth in a cell viability assay.

Compound | IC50
COc1cc2ncn(-c3cc(OCc4ccccc4S(C)(=O)=O)c(C#N)s3)c2cc1OC [GSK-319347A] | > 5 µM

Test system: NCI-H716;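 further: growth inhibition of human NCI-H716 cells, measured by a cell viability assay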
Assay: cells
Type: functional, cell-based, Homo sapiens
Conditions: Homo sapiens, NCI-H716
Description: SANGER: Inhibition of human NCI-H716 cell growth in a cell viability assay.

Compound | IC50
COc1cc2ncn(-c3cc(OCc4ccccc4S(C)(=O)=O)c(C#N)s3)c2cc1OC [GSK-319347A] | > 5 µM

Test system: MC-CAR;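 further: growth inhibition of the human MC-CAR cell line, read out by a cell viability assay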
Assay: cells
Type: functional, cell-based, Homo sapiens
Conditions: Homo sapiens, MC-CAR
Description: SANGER: Inhibition of human MC-CAR cell growth in a cell viability assay.

Compound | IC50
COc1cc2ncn(-c3cc(OCc4ccccc4S(C)(=O)=O)c(C#N)s3)c2cc1OC [GSK-319347A] | > 5 µM

Test system: NCI-H1304;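 further: growth inhibition of the cancer cell line, measured in a cell viability assay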
Assay: cells
Type: functional, cell-based, Homo sapiens
Conditions: Homo sapiens, NCI-H1304
Description: SANGER: Inhibition of human NCI-H1304 cell growth in a cell viability assay.

Compound | IC50
COc1cc2ncn(-c3cc(OCc4ccccc4S(C)(=O)=O)c(C#N)s3)c2cc1OC [GSK-319347A] | > 5 µM

Test system: TE-1;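 further: growth inhibition of the human TE-1 cell line, read out with a cell viability assay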
Assay: cells
Type: functional, cell-based, Homo sapiens
Conditions: Homo sapiens, TE-1
Description: SANGER: Inhibition of human TE-1 cell growth in a cell viability assay.

Compound | IC50
COc1cc2ncn(-c3cc(OCc4ccccc4S(C)(=O)=O)c(C#N)s3)c2cc1OC [GSK-319347A] | > 5 µM

Test system: GAK;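 further: cell growth inhibition read out by a cell viability assay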
Assay: cells
Type: functional, cell-based, Homo sapiens
Conditions: Homo sapiens, GAK
Description: SANGER: Inhibition of human GAK cell growth in a cell viability assay.

Compound | IC50
COc1cc2ncn(-c3cc(OCc4ccccc4S(C)(=O)=O)c(C#N)s3)c2cc1OC [GSK-319347A] | > 5 µM

Test system: ST486
Assay: SANGER: Inhibition of human ST486 cell growth in a cell viability assay.
Type: functional, cell-based
Conditions: Homo sapiens, ST486

Compound | IC50
COc1cc2ncn(-c3cc(OCc4ccccc4S(C)(=O)=O)c(C#N)s3)c2cc1OC [GSK-319347A] | > 5 µM

Test system: LOX IMVI
Assay: cells
Type: functional, cell-based, Homo sapiens
Conditions: Homo sapiens, LOX IMVI
Description: SANGER: Inhibition of human LOXIMVI cell growth in a cell viability assay.

Compound | IC50
COc1cc2ncn(-c3cc(OCc4ccccc4S(C)(=O)=O)c(C#N)s3)c2cc1OC [GSK-319347A] | > 5 µM
